Measured values published in patent publication US20110039770A1, “INHIBITORS OF PROTEIN KINASE C ISOFORMS AND USES THEREOF” (PHARMAGAP INC., priority 2005, published 2011).

What was measured:
Experiment in all cases: Tetracycline-induced expression of TIM 17 in IMR32 cells, PKC isoform level
Format in all cases: cell-based
PKC-α = PKC-α (Homo sapiens, UniProt P17252); parameters: endogenous PKC-α in (A) untreated human neuroblastoma (IMR-32) cells; endogenous in cells; host or cells: IMR-32 human neuroblastoma cells; settings: TIM 17 transfected cells + 150 ng/ml tetracycline 48 h; flow cytometry
Description: (§1) The specificity and efficacy of compound TIM 17 (see Table 28) was tested intracellularly on 3 PKC isoforms (α, δ and ε), which are the main isoforms expressed in the IMR32 neuroblastoma cell lines and neuroblastoma biopsies.
(§2) The synthetic TIM 17 gene was subcloned into the pREx-DEST31(7559) expression vector and transfected into IMR32 neuroblastoma cells using standard techniques. Transcription of the TIM 17 gene is under the control of a tetracycline promoter that allows gene expression to be switched on and off. Expression of the TIM 17 gene was elicited by treatment with 150 ng/ml of tetracycline for 48 h.
The data were acquired from 20,000 to 50,000 individual cells. The graph scales report the number of events measured at the peak of fluorescence while the percentage of cells positive to the specific anti-PKCalpha antibody is shown on the graphs together with the relative intensity (see number provided below the percentage). The relative intensity correlates to the mean intracellular level of PKCalpha in the cell population.
The expression level of PKC-α, δ and ε was also assessed by fluorescence imaging using anti-PKC antibodies from SantaCruz and secondary Alexa 488 conjugate from Invitrogen. Microscopic images were obtained from a Coulter microscope equipped with epifluorescence and the images analyzed with ImagePro+ software with the assistance of DAGE-MTI camera. […]

PKC epsilon = biological target: T1, PKC epsilon (Homo sapiens, UniProt Q02156); parameters: endogenous in cells; settings: fluorescence imaging; confirmed by Western blot
T1 sequence (Q02156 1-737): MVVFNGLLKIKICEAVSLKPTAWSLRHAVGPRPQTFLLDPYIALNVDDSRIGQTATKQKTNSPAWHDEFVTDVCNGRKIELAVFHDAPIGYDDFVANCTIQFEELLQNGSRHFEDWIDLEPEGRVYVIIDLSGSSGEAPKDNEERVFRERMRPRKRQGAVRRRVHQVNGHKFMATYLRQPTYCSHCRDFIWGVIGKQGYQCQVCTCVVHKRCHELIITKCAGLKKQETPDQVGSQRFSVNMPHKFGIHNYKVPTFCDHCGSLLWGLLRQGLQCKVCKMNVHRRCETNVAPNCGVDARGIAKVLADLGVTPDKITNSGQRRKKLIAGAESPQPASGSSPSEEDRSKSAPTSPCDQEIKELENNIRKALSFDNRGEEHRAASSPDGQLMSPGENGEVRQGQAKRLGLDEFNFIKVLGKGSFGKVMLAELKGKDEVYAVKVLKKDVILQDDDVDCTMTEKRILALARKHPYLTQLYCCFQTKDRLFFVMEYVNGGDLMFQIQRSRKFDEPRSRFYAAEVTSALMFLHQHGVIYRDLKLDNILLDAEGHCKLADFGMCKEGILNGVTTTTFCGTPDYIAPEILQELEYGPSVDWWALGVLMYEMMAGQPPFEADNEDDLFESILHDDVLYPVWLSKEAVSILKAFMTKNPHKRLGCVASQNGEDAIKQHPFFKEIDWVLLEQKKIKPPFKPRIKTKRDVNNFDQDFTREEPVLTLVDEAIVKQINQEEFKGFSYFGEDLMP
Description: as §1, §2
(§3) The expression level of PKC-α, δ and ε was also assessed by fluorescence imaging using anti-PKC antibodies from SantaCruz and secondary Alexa 488 conjugate from Invitrogen. Microscopic images were obtained from a Coulter microscope equipped with epifluorescence and the images analyzed with ImagePro+ software with the assistance of DAGE-MTI camera. The same gating was maintained constant for all images. […] The above results were also confirmed by Western blot.

PKC delta = PKC delta (Homo sapiens, UniProt Q05655); parameters: endogenous in cells; settings: fluorescence imaging; confirmed by Western blot
PKC delta, sequence (Q05655 whole entry): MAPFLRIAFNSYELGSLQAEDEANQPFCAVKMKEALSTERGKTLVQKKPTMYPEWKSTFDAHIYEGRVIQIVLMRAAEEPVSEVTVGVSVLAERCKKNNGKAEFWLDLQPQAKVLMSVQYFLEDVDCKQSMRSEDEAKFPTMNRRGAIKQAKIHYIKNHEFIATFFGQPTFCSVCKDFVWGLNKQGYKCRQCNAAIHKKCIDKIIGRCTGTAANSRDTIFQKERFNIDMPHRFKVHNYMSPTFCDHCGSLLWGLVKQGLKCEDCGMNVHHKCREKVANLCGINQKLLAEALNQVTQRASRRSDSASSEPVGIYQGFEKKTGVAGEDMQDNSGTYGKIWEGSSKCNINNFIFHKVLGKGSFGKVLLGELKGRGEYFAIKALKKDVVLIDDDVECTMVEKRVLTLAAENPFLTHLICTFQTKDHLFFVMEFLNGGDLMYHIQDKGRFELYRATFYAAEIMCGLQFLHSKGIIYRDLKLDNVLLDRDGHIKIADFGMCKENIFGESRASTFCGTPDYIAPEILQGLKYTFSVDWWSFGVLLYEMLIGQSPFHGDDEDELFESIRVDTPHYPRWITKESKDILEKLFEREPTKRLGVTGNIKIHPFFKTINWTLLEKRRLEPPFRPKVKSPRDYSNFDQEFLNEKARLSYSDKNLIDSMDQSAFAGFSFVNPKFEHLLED
Description: as §1, §2, §3

FRRKFRL—(G)7—KDAQNLIGISI [TIM 17] was tested, and the “percentage of cells expressing similar levels of PKCalpha as controls” value (PKC-α) was 30%, the “percentage of population with dramatic decrease in PKC alpha cellular content” value (PKC-α) was 69.8% and the “intracellular level of PKC epsilon” value (PKC epsilon) was “did not, however, alter the intracellular level”. For the same substance, the “intracellular level of PKC delta” value (PKC delta) was “did not, however, alter the intracellular level”.
